Earlier results on one compound are cited in patent US20190100806A1, “MARKER FOR PREDICTING TREATMENT RESPONSE TO ANTI-CANCER AGENT IN SOLID CANCER PATIENTS” (DAEWOONG PHARMACEUTICAL CO., LTD., priority 2016, published 2019).

Data set [1] concerns RAC serine/threonine-protein kinase (Akt) phosphorylation. Particulars: mouse models xenografted with human PTEN-deficient tumor cells. A general note: In xenograft studies the graft and the host belong to different species.
For data set [2], the system named is Akt phosphorylation (Ser473). Particulars: single dose, mouse model xenografted with PC-3 cells.
The subject of data set [3] is HCC70 (human breast ductal carcinoma) cells. The following applies: PTEN-deficient, read-out: median effective concentration (EC50).
For data set [4], the system named is PC-3 (human prostate cancer) cells. The following applies: PC-3 cells, PTEN-deficient; read-out: median effective concentration (EC50).

`Cc1c(Cn2c(C)nc3c(C(=O)O)cc(N4CCOCC4)cc32)cccc1C(F)(F)F` [GSK-2636771]: the “phosphorylation of Akt” value in data set [1] is “inhibits the phosphorylation of RAC serine/threonine-protein kinase (Akt) in a dose-dependent manner”. Besides, the “Akt phosphorylation (Ser473)” value in data set [2] is on record as “reduce Akt phosphorylation (Ser473)”. For the same compound, the EC50 in data set [3] was 72 nM; in data set [4] it was 36 nM.
